In PMC5627017 (Frontiers in Pharmacology, 2017):
Where two headings read alike, the source gives them in different places. One block for each compound: values may come before it.

Tests used:
[1] = tested on: H1R; parameters: method as in Slack et al., 2011a,b; details: ex vivo organ bath, antagonists continuously removed; ref Slack et al., 2011a,b; cited from earlier work
[2] = molecular target: T1, H1R endogenously expressed in HeLa cells (Homo sapiens, UniProt P35367)
Description: (1) normalizedfluorescentresponse=FHA−Fb/Ft−Fb
The AUC was quantified using GraphPad Prism (GraphPad Software, San Diego, CA, United States). Settings were as such that peaks were ignored when there was less than 1% difference between min and max fluorescence and/or peaks shaped by fewer than 10 data points. The resulting dose-response curves were analyzed by non-linear regression according to Eq. 2.

[3] = molecular target: T1, H1R endogenously expressed in HeLa cells; experiment: DMR receptor recovery after washout; details: 10x Ki pre-incubation, 1 h and 2 h after washout
Description: For the measurement of DMR in HeLa cells upon treatment by agonists and antagonists, a resonant waveguide grating (RWG) biosensor method was used.
HeLa cells were grown in DMEM High Glucose medium with L-Glutamine supplemented with 10% FBS and 1x penicillin/streptomycin [all reagents were obtained from Capricorn Scientific GmbH (Ebsdorfergrund, Germany)] and incubated in humidified atmosphere at 37°C and 5% CO2 in air.
As vehicle control wells with medium/DMSO treated cells were included. The LFC plate was incubated overnight in a humidified atmosphere at 37°C and 5% CO2 in air. On the next day assay buffer [HBSS (Sigma–Aldrich), 20 mM HEPES (Sigma–Aldrich), 0.5% (v/v) DMSO] was adapted to room temperature before use. 22–24 h after cell seeding antagonists were removed from the LFC plate and wells were washed four times with label-free assay buffer (25 μL/ well). The total assay volume after the washing step was 30 μL/ well.
In all experiments a DMSO concentration of 0.5% (v/v) was not exceeded. The LFC plate was placed in an EnSpire® Multimode Plate Reader equipped with Corning® Epic® Label-free technology.
Data was analyzed individually for each quadrant of the 384 well LFC plate using GraphPad Prism.
Depicted values represent mean and standard deviation of two independent experiments.

[4] = molecular target: T1, H1R endogenously expressed in HeLa cells; experiment: Receptor recovery of calcium mobilization after antagonist washout; type: cell-based; parameters: HeLa cells, endogenously expressing the H1R at low, but physiological relevant densities, were used in both assays; endogenous in cells; host or cells: HeLa cells (in-house cell biobank); details: for RecT (receptor recovery time), calcium mobilization: reciprocal of krec
Description: HeLa cells were cultured as described above. HeLa cells were lifted from a subconfluent dish by incubating with a 1x trypsin solution for 4 min. Cells were then seeded in a black, clear bottom 96-well plate, with 2 × 10^4 cells per well. Subsequently, the cells were pre-incubated overnight in culture medium with a range of antagonist concentrations or without antagonist, as is specified per assay format below. After 18–20 h, assay buffer was prepared by supplementing HBSS with 20 mM HEPES pH 7.4 and 2.5 mM probenecid (from a 2.5 × 10^-1 M stock in water). Dye solution was then prepared by dissolving one aliquot of Fluo4 NW in 22 mL assay buffer. Medium was aspirated and Fluo4 NW dye solution was supplemented to the cells and incubated for an hour at 37°C in the presence of the respective antagonist. After labeling the cells with Fluo4 NW, readout of the calcium response was measured per individual well in series.
One 96-well plate with HeLa cells was separated into four sections and each section was pre-incubated with a respective 10 times Ki concentrations of antihistamine or vehicle condition. […] Following Fluo4 NW loading in the presence of the respective concentration antihistamine, cells were washed and reconstituted in 100 μL assay buffer that was pre-heated to 37°C (t0). […] The first measurement was started approximately 2 min after washing the cells and subsequent wells were measured with 75 s intervals. […] The data was analyzed using non-linear regression with a one-phase association model in GraphPad Prism according to Eq. 3.
(3) Y=Y0+(Ymax−Y0)×(1−e^(−krec×t))
For all other antihistamines a free fit of Ymax was allowed, reported in the results as the steady-state recovery (%). Receptor recovery times (RecT) were calculated for each experiment as the reciprocal of the krec. Reported krec and RecT values are the mean ± SEM of ≥3 experiments.

[5] = tested on: H1R; parameters: method as in Gillard et al., 2002; Schoepke et al., 2013; details: ref Gillard et al., 2002; Schoepke et al., 2013; cited from earlier work
[6] = molecular target: T1, H1R endogenously expressed in HeLa cells; remark: listed apart in the source
[7] = 10x Ki pre-incubation, washout, 37°C, mean ± SEM of ≥3

T1 sequence (P35367 whole entry): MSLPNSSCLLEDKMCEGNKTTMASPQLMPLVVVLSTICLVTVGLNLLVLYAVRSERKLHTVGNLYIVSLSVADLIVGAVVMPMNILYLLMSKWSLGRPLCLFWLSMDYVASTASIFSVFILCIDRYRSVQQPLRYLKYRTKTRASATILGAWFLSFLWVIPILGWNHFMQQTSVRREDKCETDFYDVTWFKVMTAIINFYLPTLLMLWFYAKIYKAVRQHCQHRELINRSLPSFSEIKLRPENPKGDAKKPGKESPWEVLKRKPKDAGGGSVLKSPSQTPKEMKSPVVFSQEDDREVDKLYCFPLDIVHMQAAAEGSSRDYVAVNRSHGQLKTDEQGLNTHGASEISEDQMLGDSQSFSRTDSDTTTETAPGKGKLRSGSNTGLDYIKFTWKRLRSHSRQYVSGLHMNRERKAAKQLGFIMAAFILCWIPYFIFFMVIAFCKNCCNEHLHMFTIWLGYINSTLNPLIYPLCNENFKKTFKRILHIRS

SMILES: CN1CCCC(n2nc(Cc3ccc(Cl)cc3)c3ccccc3c2=O)CC1 (centres unmarked) [azelastine]
inhibition of histamine-induced, H1R mediated bronchial contraction (in words) [1]: retained a long inhibition

SMILES: Cc1ccc(/C(=C\CN2CCCC2)c2ccccn2)cc1 [Triprolidine, triprolidine]
insurmountable antagonism of histamine DMR response after washout (in words) [3]: showed insurmountable antagonism, but this was the same at 1 and 2 h

SMILES: O=c1c2ccccc2c(Cc2ccc(Cl)cc2)nn1C[C@H]1CCCN1CCCCc1ccc(OCCCN2CCCCCC2)cc1 [GSK1004723]
inhibition of histamine-induced, H1R mediated bronchial contraction (in words) [1]: retained a long inhibition

Continued, in another order:

antagonism of histamine-induced calcium mobilization after overnight pre-incubation (in words) [2]: full insurmountable inhibition
insurmountable antagonism of histamine DMR response after washout (in words) [3]: pronounced
suppression of maximal histamine DMR response after washout (in words) [3]: suppressed the Emax up to 2 h
krec (recovery rate of histamine induced calcium mobilization) [4]: 0.006 ± 0.001 min⁻¹
recovery of histamine induced calcium mobilization after washout (in words) [4]: even more delayed
RecT (receptor recovery time), calcium mobilization [4, 7]: 226 ± 60 min
SMILES: CN(C)CC/C=C1/c2ccccc2COc2ccc(CC(=O)O)cc21 [Olopatadine, olopatadine]

antagonism of histamine-induced calcium mobilization after overnight pre-incubation (in words) ([2]; HeLa cells, increasing antagonist and histamine concentrations): full insurmountable inhibition
insurmountable antagonism of histamine DMR response after washout (in words) [3]: pronounced
suppression of maximal histamine DMR response after washout (in words) [3]: suppressed the Emax up to 2 h
krec (recovery rate of histamine induced calcium mobilization) ([4]; 10x Ki overnight pre-incubation, washout, 10^-5 M histamine, 37°C, mean ± SEM of ≥3): 0.014 ± 0.003 min⁻¹
recovery of histamine induced calcium mobilization after washout (in words) ([4]; 10x Ki pre-incubation, 10^-5 M histamine): even more delayed
Steady-state recovery (%) ([4]; fitted Ymax of histamine-induced calcium response after washout, relative to vehicle pre-treated cells): 104 ± 10%
RecT (receptor recovery time), calcium mobilization [4, 7]: 87 ± 20 min
SMILES: O=C(O)COCCN1CCN([C@H](c2ccccc2)c2ccc(Cl)cc2)CC1 [Levocetirizine, levocetirizine]
in vivo efficacy after depletion of free concentrations in the blood (in words) [5]: hysteresis of efficacy

Hill slope of histamine, calcium mobilization [2]: 1.1 ± 0.1
Hill slope of histamine, DMR (AUC) ([6]; AUC): 0.88
Hill slope of histamine, DMR (peak response) ([6]; peak response): 0.92
SMILES: NCCc1c[nH]cn1 [histamine]
